In data set [1] the test system is Bak. The conditions noted are these: ref Willis et al., 2005; cited from earlier work.
For data set [2], the system named is Xenopus egg mitochondria (XEM). It is filed as biochemical, Xenopus laevis. The note with it: for concentration that protected XEM against at least 20 nM tBid: titrations in XEM supplemented with tBid (Fig. 5 A).
Data set [3] deals with mouse liver mitochondria (MLM). It counts as biochemical.
The mark [4] stands for this setting: full-length Bcl-xL, tBid 2 h (Fig. 3).

Results on 3 substances are retold here after publication PMC2064136 (The Journal of Cell Biology, 2007).

In the case of “Bcl-xL: recombinant full-length human Bcl-xL”, the “binding to Bak” value in data set [1] was “bind Bak”. Also, the “concentration protecting XEM from tBid” value in data set [2] (setting [4]) was approximately 20 nM. Also, in data set [2], the “concentration that protected XEM against at least 20 nM tBid” value was 30 nM. Also, the “concentration protecting MLM from tBid” value in data set [3] (setting [4]) is approximately 20 nM.

Regarding “Bcl-xLΔC24: C-terminally truncated form of human Bcl-xL”, the “loss of activity relative to full-length Bcl-xL in protecting MLM from tBid” value in data set [3] (MLM, tBid (Fig. 3 B)) is 10–30 times.

Consider “Mcl-1: recombinant mouse Mcl-1ΔN151ΔC11 with five additional N-terminal residues (GPLGS)”, for which, in data set [1], the “binding to Bak” value is recorded as “bind Bak”. The “relative protection of XEM from different BH3 peptides” value in data set [2] (Fig. S4) was “protected XEM better from the Bad than from the Bim or Puma peptides”. In data set [2], the “concentration that protected XEM against at least 20 nM tBid” value was determined as 300 nM. Further, the “block of the permeabilizing effect of Bad, Bmf and Hrk BH3 peptides on MLM” value in data set [3] (MLM incubated as for XEM with mBad, Bmf, Hrk BH3 peptides (Fig. 4 B)) is listed as “also blocked”.
